Test results taken from ChEMBL document CHEMBL5036348, “Identification and evaluation of 4-anilinoquin(az)olines as potent inhibitors of both dengue virus (DENV) and Venezuelan equine encephalitis virus (VEEV)” (Bioorg Med Chem Lett, 2021).

Legend:
[1] = Cytotoxicity against DENV infected human Huh-7 cells assessed as reduction in cell viability by alamar blue assay; type: cell-based; details: DENV-infected Huh-7 cells
[2] = Cytotoxicity against Venezuelan equine encephalitis virus TC-83 strain infected human U-87 MG cells assessed as reduction in cell viability by alamar blue assay; type: cell-based, U-87MG ATCC
[3] = test system: Venezuelan equine encephalitis virus; assay: Antiviral activity against Venezuelan equine encephalitis virus TC-83 strain infected in human U-87 MG cells assessed as reduction in viral infection measured after 18 hrs post infection by Nano luciferase assay relative to control; type: functional, organism-based; details: TC-83, U-87 MG
dengue virus type 2 = assay: Antiviral activity against DENV2 New Guinea C strain infected in human Huh7 cells assessed as reduction in viral infection measured after 48 hrs post infection by renilla luciferase assay relative to control; type: functional, organism-based; details: Huh-7, 48 h

Compound: C#Cc1cccc(Nc2ccnc3cc(OC)c(OC)cc23)c1
- CC50 [1]: > 10 µM
- CC50 [2]: > 10 µM
- EC50 [3]: 7.5 µM
- EC50 (dengue virus type 2): 8.6 µM

Compound: C#Cc1cccc(Nc2ncnc3cc(OC)c(OC)cc23)c1
- CC50 [1]: > 10 µM
- CC50 [2]: > 10 µM
- EC50 [3]: 10 µM
- EC50 (dengue virus type 2): 6.5 µM

Compound: C#Cc1cccc(Nc2c(C#N)cnc3cc(OC)c(OC)cc23)c1
- CC50 [1]: > 10 µM
- CC50 [2]: > 10 µM
- EC50 [3]: > 10 µM
- EC50 (dengue virus type 2): 3 µM

Compound: COc1cc(Nc2ncnc3ccc(C(F)(F)F)cc23)cc(OC)c1OC
- CC50 [1]: > 10 µM
- CC50 [2]: > 10 µM
- EC50 [3]: > 10 µM
- EC50 (dengue virus type 2): > 10 µM

Compound: COc1cccc(Nc2ccnc3ccc(C(F)(F)F)cc23)c1
- CC50 [1]: > 10 µM
- CC50 [2]: > 10 µM
- EC50 [3]: 5.5 µM
- EC50 (dengue virus type 2): 0.82 µM

Compound: N#Cc1ccccc1Nc1ccnc2ccc(C(F)(F)F)cc12
- CC50 [1]: > 10 µM
- CC50 [2]: > 10 µM
- EC50 [3]: > 10 µM
- EC50 (dengue virus type 2): > 10 µM

Compound: C#Cc1cccc(Nc2ccnc3ccc(OC)cc23)c1
- CC50 [1]: > 10 µM
- CC50 [2]: > 10 µM
- EC50 [3]: > 10 µM
- EC50 (dengue virus type 2): 4.3 µM

Compound: FC(F)(F)c1ccc2nccc(Nc3ccc(Br)cc3)c2c1
- CC50 [1]: > 10 µM
- CC50 [2]: > 10 µM
- EC50 [3]: 6.3 µM
- EC50 (dengue virus type 2): 4.1 µM

Compound: COc1cc(Nc2ccnc3ccc(C(F)(F)F)cc23)cc(OC)c1
- CC50 [1]: > 10 µM
- CC50 [2]: > 10 µM
- EC50 [3]: 2.1 µM
- EC50 (dengue virus type 2): 1.3 µM

Compound: COc1ccc(Nc2ccnc3ccc(C(F)(F)F)cc23)cc1OC
- CC50 [1]: > 10 µM
- CC50 [2]: > 10 µM
- EC50 [3]: > 10 µM
- EC50 (dengue virus type 2): 8.9 µM

Compound: C#Cc1cccc(Nc2ccnc3cc(OC)ccc23)c1
- CC50 [1]: > 10 µM
- CC50 [2]: > 10 µM
- EC50 [3]: > 10 µM
- EC50 (dengue virus type 2): 1.7 µM

Compound: FC(F)(F)c1ccc2nccc(Nc3ccc4c(c3)OCCO4)c2c1
- CC50 [1]: > 10 µM
- CC50 [2]: > 10 µM
- EC50 [3]: > 10 µM
- EC50 (dengue virus type 2): > 10 µM

Compound: FC(F)(F)c1ccc2nccc(Nc3ccc4c(c3)OCO4)c2c1
- CC50 [1]: > 10 µM
- CC50 [2]: > 10 µM
- EC50 [3]: 1.5 µM
- EC50 (dengue virus type 2): 4.1 µM

Compound: COc1ccccc1Nc1ccnc2ccc(C(F)(F)F)cc12
- CC50 [1]: > 10 µM
- CC50 [2]: > 10 µM
- EC50 [3]: 2.5 µM
- EC50 (dengue virus type 2): > 10 µM

Compound: FC(F)(F)c1ccc2nccc(Nc3ccc(Cl)c(Cl)c3)c2c1
- CC50 [1]: > 10 µM
- CC50 [2]: > 10 µM
- EC50 [3]: 0.5 µM
- EC50 (dengue virus type 2): 3.3 µM

Compound: C#Cc1cccc(Nc2ncnc3cc(OC)c(OC)cc23)c1F
- CC50 [1]: > 10 µM
- CC50 [2]: > 10 µM
- EC50 [3]: 10 µM
- EC50 (dengue virus type 2): > 10 µM

Compound: CS(=O)(=O)c1ccc(Nc2ccnc3ccc(C(F)(F)F)cc23)cc1
- CC50 [1]: > 10 µM
- CC50 [2]: > 10 µM
- EC50 [3]: > 10 µM
- EC50 (dengue virus type 2): 6.1 µM

Compound: Fc1cc(Nc2ccnc3ccc(C(F)(F)F)cc23)cc(F)c1F
- CC50 [1]: > 10 µM
- CC50 [2]: > 10 µM
- EC50 [3]: > 10 µM
- EC50 (dengue virus type 2): > 10 µM

Compound: FC(F)(F)c1cccc(Nc2ccnc3ccc(C(F)(F)F)cc23)c1
- CC50 [1]: > 10 µM
- CC50 [2]: > 10 µM
- EC50 [3]: 4.8 µM
- EC50 (dengue virus type 2): 5.7 µM

Compound: CC(=O)c1cccc(Nc2ccnc3ccc(C(F)(F)F)cc23)c1
- CC50 [1]: > 10 µM
- CC50 [2]: > 10 µM
- EC50 [3]: > 10 µM
- EC50 (dengue virus type 2): 6.8 µM

Compound: COc1cccc(Nc2ccnc3cc(OC)c(OC)cc23)c1
- CC50 [1]: > 10 µM
- CC50 [2]: > 10 µM
- EC50 [3]: 4.8 µM
- EC50 (dengue virus type 2): 5.9 µM

Compound: C#Cc1ccc(F)c(Nc2ncnc3cc(OC)c(OC)cc23)c1
- CC50 [1]: > 10 µM
- CC50 [2]: > 10 µM
- EC50 [3]: 7.8 µM
- EC50 (dengue virus type 2): 9 µM

Compound: C#Cc1cccc(Nc2ccnc3ccc(C(F)(F)F)cc23)c1
- CC50 [1]: > 10 µM
- CC50 [2]: > 10 µM
- EC50 [3]: 2.5 µM
- EC50 (dengue virus type 2): 3.8 µM

Compound: FC(F)(F)c1ccc2nccc(Nc3ccccc3Br)c2c1
- CC50 [1]: > 10 µM
- CC50 [2]: > 10 µM
- EC50 [3]: > 10 µM
- EC50 (dengue virus type 2): > 10 µM

Compound: FC(F)(F)c1ccc2nccc(Nc3ccc(Cl)cc3)c2c1
- CC50 [1]: > 10 µM
- CC50 [2]: > 10 µM
- EC50 [3]: 1.9 µM
- EC50 (dengue virus type 2): 7.2 µM

Compound: C#Cc1cccc(Nc2c(C#N)cnc3ccc(OC)cc23)c1
- CC50 [1]: > 10 µM
- CC50 [2]: > 10 µM
- EC50 [3]: > 10 µM
- EC50 (dengue virus type 2): 8.9 µM

Compound: FC(F)(F)c1ccc2nccc(Nc3cccc(Cl)c3)c2c1
- CC50 [1]: > 10 µM
- CC50 [2]: > 10 µM
- EC50 [3]: 4.8 µM
- EC50 (dengue virus type 2): 7.9 µM

Compound: COc1ccc(OC)c(Nc2ccnc3ccc(C(F)(F)F)cc23)c1
- CC50 [1]: > 10 µM
- CC50 [2]: > 10 µM
- EC50 [3]: 1.7 µM
- EC50 (dengue virus type 2): 0.25 µM

Compound: C#Cc1cccc(Nc2ncnc3cc(OC)ccc23)c1
- CC50 [1]: > 10 µM
- CC50 [2]: > 10 µM
- EC50 [3]: > 10 µM
- EC50 (dengue virus type 2): > 10 µM

Compound: C#Cc1cc(Nc2ncnc3cc(I)ccc23)ccc1F
- CC50 [1]: > 10 µM
- CC50 [2]: > 10 µM
- EC50 [3]: > 10 µM
- EC50 (dengue virus type 2): > 10 µM

Compound: C#Cc1cccc(Nc2c(C#N)cnc3cc(OC)ccc23)c1
- CC50 [1]: > 10 µM
- CC50 [2]: > 10 µM
- EC50 [3]: > 10 µM
- EC50 (dengue virus type 2): 7.8 µM

Compound: CS(=O)(=O)c1cccc(Nc2ccnc3ccc(C(F)(F)F)cc23)c1
- CC50 [1]: > 10 µM
- CC50 [2]: > 10 µM
- EC50 [3]: > 10 µM
- EC50 (dengue virus type 2): > 10 µM

Compound: Fc1cc(Nc2ccnc3ccc(C(F)(F)F)cc23)ccc1Cl
- CC50 [1]: > 10 µM
- CC50 [2]: > 10 µM
- EC50 [3]: 1.7 µM
- EC50 (dengue virus type 2): 4.1 µM

Compound: N#Cc1ccc(Nc2ccnc3ccc(C(F)(F)F)cc23)cc1
- CC50 [1]: > 10 µM
- CC50 [2]: > 10 µM
- EC50 [3]: > 10 µM
- EC50 (dengue virus type 2): 9.8 µM

Compound: Fc1cc(Cl)cc(Nc2ccnc3ccc(C(F)(F)F)cc23)c1
- CC50 [1]: > 10 µM
- CC50 [2]: > 10 µM
- EC50 [3]: 5.8 µM
- EC50 (dengue virus type 2): 9.3 µM

Compound: C#Cc1cccc(Nc2ncnc3ccc(OC)cc23)c1
- CC50 [1]: > 10 µM
- CC50 [2]: > 10 µM
- EC50 [3]: 8 µM
- EC50 (dengue virus type 2): 9.7 µM

Compound: COc1ccc(Nc2ccnc3ccc(C(F)(F)F)cc23)c(OC)c1
- CC50 [1]: > 10 µM
- CC50 [2]: > 10 µM
- EC50 [3]: 3.4 µM
- EC50 (dengue virus type 2): > 10 µM

Compound: Fc1ccc(Nc2ccnc3ccc(C(F)(F)F)cc23)cc1F
- CC50 [1]: > 10 µM
- CC50 [2]: > 10 µM
- EC50 [3]: > 10 µM
- EC50 (dengue virus type 2): > 10 µM

Compound: Fc1ccccc1Nc1ccnc2ccc(C(F)(F)F)cc12
- CC50 [1]: > 10 µM
- CC50 [2]: > 10 µM
- EC50 [3]: > 10 µM
- EC50 (dengue virus type 2): > 10 µM

Compound: COc1cc2nccc(Nc3cccc(C(C)=O)c3)c2cc1OC
- CC50 [1]: > 10 µM
- CC50 [2]: > 10 µM
- EC50 [3]: 1.3 µM
- EC50 (dengue virus type 2): 4.8 µM

Compound: Fc1cccc(Nc2ccnc3ccc(C(F)(F)F)cc23)c1
- CC50 [1]: > 10 µM
- CC50 [2]: > 10 µM
- EC50 [3]: > 10 µM
- EC50 (dengue virus type 2): > 10 µM

Compound: FC(F)(F)c1ccc2nccc(Nc3ccccc3Cl)c2c1
- CC50 [1]: > 10 µM
- CC50 [2]: > 10 µM
- EC50 [3]: 6.4 µM
- EC50 (dengue virus type 2): > 10 µM

Compound: N#Cc1cccc(Nc2ccnc3ccc(C(F)(F)F)cc23)c1
- CC50 [1]: > 10 µM
- CC50 [2]: > 10 µM
- EC50 [3]: 2.2 µM
- EC50 (dengue virus type 2): > 10 µM

Compound: FC(F)(F)c1ccc2nccc(Nc3cccc(Br)c3)c2c1
- CC50 [1]: > 10 µM
- CC50 [2]: > 10 µM
- EC50 [3]: 2.3 µM
- EC50 (dengue virus type 2): 6.1 µM

Compound: FC(F)(F)c1ccc2nccc(Nc3cccc(I)c3)c2c1
- CC50 [1]: > 10 µM
- CC50 [2]: > 10 µM
- EC50 [3]: 1.4 µM
- EC50 (dengue virus type 2): 6.1 µM

Compound: C#Cc1cc(Nc2ncnc3ccc(I)cc23)ccc1F
- CC50 [1]: > 10 µM
- CC50 [2]: > 10 µM
- EC50 [3]: > 10 µM
- EC50 (dengue virus type 2): 5 µM

Compound: C#Cc1cc(Nc2ncnc3cc(C#N)ccc23)ccc1F
- CC50 [1]: > 10 µM
- CC50 [2]: > 10 µM
- EC50 [3]: 3.9 µM
- EC50 (dengue virus type 2): > 10 µM

Compound: COc1ccc(Nc2ccnc3ccc(C(F)(F)F)cc23)cc1
- CC50 [1]: > 10 µM
- CC50 [2]: > 10 µM
- EC50 [3]: 0.88 µM
- EC50 (dengue virus type 2): 7.7 µM

Compound: Fc1ccc(Nc2ccnc3ccc(C(F)(F)F)cc23)cc1
- CC50 [1]: > 10 µM
- CC50 [2]: > 10 µM
- EC50 [3]: > 10 µM
- EC50 (dengue virus type 2): > 10 µM

Compound: COc1cc(Nc2ccnc3ccc(C(F)(F)F)cc23)cc(OC)c1OC
- CC50 [1]: > 10 µM
- CC50 [2]: > 10 µM
- EC50 [3]: 1.6 µM

Compound: C#Cc1cc(Nc2ncnc3cc(OC)c(OC)cc23)ccc1F
- CC50 [1]: > 10 µM
- CC50 [2]: > 10 µM
- EC50 [3]: 0.6 µM
- EC50 (dengue virus type 2): 7.6 µM

Compound: COc1cc2nccc(Nc3cccc(Br)c3)c2cc1OC
- CC50 [1]: > 10 µM
- CC50 [2]: > 10 µM
- EC50 [3]: 4.8 µM
- EC50 (dengue virus type 2): 9.8 µM

Compound: C#Cc1cccc(Nc2ncnc3cc(OCCOC)c(OCCOC)cc23)c1 [ERLOTINIB]
- EC50 [3]: > 20 µM
